Where two headings read alike, the source gives them in different places.
Assays:
[1] = biological target: T1, human Gcg receptor (hGcgR) (Homo sapiens, UniProt P47871); test: [125I]-Glucagon binding, SPA with membranes of HEK293 cells expressing hGcgR
T1 construct: expressed in transfected cells; crude membranes

[2] = biological target: T2, human GIP receptor (hGIPR) (Homo sapiens, UniProt P48546); test: [125I]-GIP binding, SPA with membranes of CHO cells expressing hGIPR
T2 construct: expressed in transfected cells; crude membranes
T2 sequence (P48546 22-466): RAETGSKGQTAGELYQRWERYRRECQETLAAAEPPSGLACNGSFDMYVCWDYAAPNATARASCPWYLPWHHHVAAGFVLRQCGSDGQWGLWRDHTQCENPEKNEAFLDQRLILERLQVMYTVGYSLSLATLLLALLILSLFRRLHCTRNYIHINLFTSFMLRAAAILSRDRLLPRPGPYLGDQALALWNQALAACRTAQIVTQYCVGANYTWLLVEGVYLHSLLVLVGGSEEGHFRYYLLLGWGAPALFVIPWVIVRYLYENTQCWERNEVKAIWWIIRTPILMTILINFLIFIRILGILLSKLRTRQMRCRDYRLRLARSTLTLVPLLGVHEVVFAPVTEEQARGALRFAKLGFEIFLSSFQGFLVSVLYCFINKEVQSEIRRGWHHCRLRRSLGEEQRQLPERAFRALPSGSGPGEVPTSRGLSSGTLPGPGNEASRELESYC

hGIPR = biological target: T3, hGIPR (Homo sapiens, UniProt P48546); test: Functional cAMP formation (HTRF) in HEK-293 clonal cells expressing hGIPR, 0.1% bovine casein, without or with 1.0% human serum albumin; type: cell-based; conditions: for EC50: geometric mean; for Emax: read-out: hGIPR Emax, % ± SEM
T3 construct: expressed in transfected cells
T3 sequence (P48546 22-466): T2 sequence (P48546 22-466)
Outline: (§1)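 Readings of the HTRF 665/620 nm ratio, which falls as cAMP rises, were converted to nM cAMP using a standard curve after 30 min peptide exposure at 37° C.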

hGCGR = biological target: T4, hGCGR (Homo sapiens, UniProt P47871); test: Functional cAMP formation (HTRF) in HEK-293 clonal cells expressing hGCGR, 0.1% bovine casein, without or with 1.0% human serum albumin; type: cell-based; conditions: geometric mean
T4 construct: expressed in transfected cells
Outline: as §1

hGLP-1R = hGLP-1R (Homo sapiens, UniProt P43220); test: Functional cAMP formation (HTRF) in HEK-293 clonal cells expressing hGLP-1R, 0.1% bovine casein, without or with 1.0% human serum albumin; type: cell-based; design: expressed in transfected cells; conditions: for EC50: geometric mean; for Emax: read-out: hGLP-1R Emax, % ± SEM
Outline: as §1

[3] = human GcgR, geometric mean (SEM, n), read-out: Binding Affinity Ki, nM (SEM, n) hGCGR
[4] = human GIPR, geometric mean (SEM, n), read-out: Binding Affinity Ki, nM (SEM, n) hGIPR
[5] = 0.1% bovine casein and 1.0% human serum albumin, 37° C., read-out: hGIPR EC50, nM (SEM, n)
[6] = HEK293, 0.1% bovine casein and 1.0% human serum albumin, 37° C., percent of maximal response to GIP(1-42)NH2
[7] = HEK293, percent of maximal response to GIP(1-42)NH2, 37° C., 0.1% bovine casein, arithmetic mean
[8] = cAMP, incubated at 37° C., 0.1% bovine casein (no human serum albumin), read-out: hGIPR EC50, nM (SEM, n)
[9] = 0.1% bovine casein and 1.0% human serum albumin, 37° C., read-out: hGCGR EC50, nM (SEM, n)
[10] = cAMP, incubated at 37° C., 0.1% bovine casein (no human serum albumin), read-out: hGCGR EC50, nM (SEM, n)
[11] = 0.1% bovine casein and 1.0% human serum albumin, 37° C., read-out: hGLP-1R EC50, nM (SEM, n)
[12] = HEK293, 0.1% bovine casein and 1.0% human serum albumin, 37° C., percent of maximal response to GLP-1(7-36)NH2
[13] = HEK293, percent of maximal response to GLP-1(7-36)NH2, 37° C., 0.1% bovine casein, arithmetic mean

T4 sequence (P47871 26-477): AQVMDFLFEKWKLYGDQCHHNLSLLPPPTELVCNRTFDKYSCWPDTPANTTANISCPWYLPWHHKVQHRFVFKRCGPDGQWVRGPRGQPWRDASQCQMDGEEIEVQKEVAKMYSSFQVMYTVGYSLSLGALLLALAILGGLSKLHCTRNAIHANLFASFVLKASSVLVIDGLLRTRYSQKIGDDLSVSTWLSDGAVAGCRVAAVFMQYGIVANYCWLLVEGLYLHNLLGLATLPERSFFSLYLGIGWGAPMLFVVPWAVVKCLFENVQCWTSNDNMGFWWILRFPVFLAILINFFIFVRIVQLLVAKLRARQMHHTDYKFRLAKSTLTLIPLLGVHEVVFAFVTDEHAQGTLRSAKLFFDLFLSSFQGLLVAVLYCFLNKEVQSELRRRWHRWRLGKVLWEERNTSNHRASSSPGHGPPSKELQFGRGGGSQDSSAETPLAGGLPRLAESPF
T1 sequence (P47871 26-477): as above
Sequence of hGLP-1R (P43220 24-463): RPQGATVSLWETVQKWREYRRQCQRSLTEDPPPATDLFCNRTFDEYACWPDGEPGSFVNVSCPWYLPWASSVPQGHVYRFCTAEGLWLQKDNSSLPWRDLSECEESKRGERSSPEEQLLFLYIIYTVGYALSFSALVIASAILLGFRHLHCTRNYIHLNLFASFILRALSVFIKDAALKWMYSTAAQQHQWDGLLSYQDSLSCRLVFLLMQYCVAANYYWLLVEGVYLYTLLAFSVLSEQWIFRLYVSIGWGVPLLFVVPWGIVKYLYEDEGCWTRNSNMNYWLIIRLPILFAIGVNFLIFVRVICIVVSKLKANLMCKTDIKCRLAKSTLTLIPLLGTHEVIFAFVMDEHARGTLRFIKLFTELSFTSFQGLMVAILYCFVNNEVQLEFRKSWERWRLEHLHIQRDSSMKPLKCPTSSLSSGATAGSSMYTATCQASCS

SMILES	Ki [1]	Ki [2]	EC50 (hGIPR; hGIPR EC50, nM (SEM, n), 0.1% bovine casein and 1.0% human serum albumin, 37° C.)	EC50 (hGIPR; hGIPR EC50, nM (SEM, n), cAMP, incubated at 37° C., 0.1% bovine casein (no human serum albumin))	EC50 (hGCGR; hGCGR EC50, nM (SEM, n), 0.1% bovine casein and 1.0% human serum albumin, 37° C.)	EC50 (hGCGR; hGCGR EC50, nM (SEM, n), cAMP, incubated at 37° C., 0.1% bovine casein (no human serum albumin))	EC50 (hGLP-1R; hGLP-1R EC50, nM (SEM, n), 0.1% bovine casein and 1.0% human serum albumin, 37° C.)	Ki [1, 3]	Ki [2, 4]	EC50 (hGIPR; [5])	Emax (hGIPR; [6])	Emax (hGIPR; [7])	EC50 (hGIPR; [8])	EC50 (hGCGR; [9])	EC50 (hGCGR; [10])	EC50 (hGLP-1R; [11])	Emax (hGLP-1R; [12])	Emax (hGLP-1R; [13])	EC50 (hGLP-1R; cAMP, incubated at 37° C., 0.1% bovine casein (no human serum albumin), read-out: hGLP-1R EC50, nM (SEM, n))
CC[C@H](C)[C@H](NC(=O)[C@H](CC(C)C)NC(=O)[C@](C)(Cc1ccc(O)cc1)NC(=O)[C@@H](CCC(=O)O)NC(=O)[C@@H](NC(=O)[C@H](Cc1ccccc1)NC(=O)[C@H](CCC(=O)O)NC(=O)C(C)(C)NC(=O)[C@H](CCC(N)=O)NC(=O)[C@H](C)NC(=O)[C@H](CCCCNC(=O)COCCOCCNC(=O)CC[C@H](NC(=O)CCCCCCCCCOc1ccc(C(=O)O)cc1)C(=O)O)NC(=O)[C@H](CCCN)NC(=O)[C@H](CC(=O)O)NC(=O)[C@H](CC(C)C)NC(=O)[C@](C)(CC(C)C)NC(=O)[C@@H](NC(=O)[C@H](CO)NC(=O)[C@H](Cc1ccncc1)NC(=O)[C@H](CC(=O)O)NC(=O)[C@H](CO)NC(=O)[C@@H](NC(=O)[C@](C)(Cc1ccccc1F)NC(=O)[C@@H](NC(=O)CNC(=O)[C@H](CCC(=O)O)NC(=O)C(C)(C)NC(=O)[C@@H](N)Cc1ccc(O)cc1)[C@@H](C)O)[C@@H](C)O)[C@@H](C)CC)[C@@H](C)CC)C(=O)N[C@@H](CCC(=O)O)C(=O)NCC(=O)NCC(=O)N[C@@H](CCCCNC(=O)COCCOCCNC(=O)CC[C@H](NC(=O)CCCCCCCCCOc1ccc(C(=O)O)cc1)C(=O)O)C(=O)N[C@@H](CO)C(=O)N[C@@H](CO)C(=O)NCC(=O)N[C@@H](C)C(=O)N1CCC[C@H]1C(=O)N1CCC[C@H]1C(=O)N1CCC[C@H]1C(=O)N[C@@H](CO)C(N)=O [Example 12]	213 nM	0.0575 nM	0.745 nM	0.0127 nM	> 9950 nM	> 9950 nM	20.3 nM												
CC[C@H](C)[C@H](NC(=O)[C@H](CC(C)C)NC(=O)[C@](C)(Cc1ccc(O)cc1)NC(=O)[C@@H](CCC(=O)O)NC(=O)[C@@H](NC(=O)[C@H](Cc1ccccc1)NC(=O)[C@H](CCCCNC(=O)COCCOCCNC(=O)COCCOCCNC(=O)CC[C@H](NC(=O)CCCCCCCCCCCCC(=O)O)C(=O)O)NC(=O)C(C)(C)NC(=O)[C@H](CCC(N)=O)NC(=O)[C@H](C)NC(=O)[C@H](CCCCNC(=O)COCCOCCNC(=O)COCCOCCNC(=O)CC[C@H](NC(=O)CCCCCCCCCCCCC(=O)O)C(=O)O)NC(=O)[C@H](CCCN)NC(=O)[C@H](CC(=O)O)NC(=O)[C@H](CC(C)C)NC(=O)[C@](C)(CC(C)C)NC(=O)[C@@H](NC(=O)[C@H](CO)NC(=O)[C@H](Cc1ccncc1)NC(=O)[C@H](CC(=O)O)NC(=O)[C@H](CO)NC(=O)[C@@H](NC(=O)[C@](C)(Cc1ccccc1F)NC(=O)[C@@H](NC(=O)CNC(=O)[C@H](CCC(=O)O)NC(=O)C(C)(C)NC(=O)[C@@H](N)Cc1ccc(O)cc1)[C@@H](C)O)[C@@H](C)O)[C@@H](C)CC)[C@@H](C)CC)C(=O)N[C@@H](CCC(=O)O)C(=O)NCC(=O)NCC(=O)N1CCC[C@H]1C(=O)N[C@@H](CO)C(=O)N[C@@H](CO)C(=O)NCC(=O)N[C@@H](C)C(=O)N1CCC[C@H]1C(=O)N1CCC[C@H]1C(=O)N1CCC[C@H]1C(=O)N[C@@H](CO)C(N)=O [Example 15]								> 966 nM	0.0629 nM	0.573 nM	94.4 ± 1.01%	95.9 ± 2.34%	0.0133 nM	> 9950 nM	> 9950 nM	24.8 nM	93.2 ± 3.68%	94.3 ± 4.44%	
CC[C@H](C)[C@H](NC(=O)[C@H](CC(C)C)NC(=O)[C@](C)(Cc1ccc(O)cc1)NC(=O)[C@@H](CCC(=O)O)NC(=O)[C@@H](NC(=O)[C@H](Cc1ccccc1)NC(=O)[C@H](CCC(=O)O)NC(=O)C(C)(C)NC(=O)[C@H](CCC(N)=O)NC(=O)[C@H](C)NC(=O)[C@H](CCCCNC(=O)[C@@H](N)CCCCNC(=O)COCCOCCNC(=O)COCCOCCNC(=O)CC[C@H](NC(=O)CCCCCCCCCCCCC(=O)O)C(=O)O)NC(=O)[C@H](CCCN)NC(=O)[C@H](CC(=O)O)NC(=O)[C@H](CC(C)C)NC(=O)[C@](C)(CC(C)C)NC(=O)[C@@H](NC(=O)[C@H](CO)NC(=O)[C@H](Cc1ccncc1)NC(=O)[C@H](CC(=O)O)NC(=O)[C@H](CO)NC(=O)[C@@H](NC(=O)[C@](C)(Cc1ccccc1F)NC(=O)[C@@H](NC(=O)CNC(=O)[C@H](CCC(=O)O)NC(=O)C(C)(C)NC(=O)[C@@H](N)Cc1ccc(O)cc1)[C@@H](C)O)[C@@H](C)O)[C@@H](C)CC)[C@@H](C)CC)C(=O)N[C@@H](CCC(=O)O)C(=O)NCC(=O)NCC(=O)N[C@@H](CCCCNC(=O)[C@@H](N)CCCCNC(=O)COCCOCCNC(=O)COCCOCCNC(=O)CC[C@H](NC(=O)CCCCCCCCCCCCC(=O)O)C(=O)O)C(=O)N[C@@H](CO)C(=O)N[C@@H](CO)C(=O)NCC(=O)N[C@@H](C)C(=O)N1CCC[C@H]1C(=O)N1CCC[C@H]1C(=O)N1CCC[C@H]1C(=O)N[C@@H](CO)C(N)=O [Example 37]								> 957 nM	0.171 nM	0.306 nM	88.5 ± 0.188%	91.2 ± 3.67%	0.0211 nM	> 9950 nM	> 9950 nM	17 nM			
CC[C@H](C)[C@H](NC(=O)[C@H](CC(C)C)NC(=O)[C@](C)(Cc1ccc(O)cc1)NC(=O)[C@@H](CCC(=O)O)NC(=O)[C@@H](NC(=O)[C@H](Cc1cccc(F)c1)NC(=O)[C@H](CCC(=O)O)NC(=O)C(C)(C)NC(=O)[C@H](CCC(N)=O)NC(=O)[C@H](C)NC(=O)[C@H](CCCCNC(=O)COCCOCCNC(=O)COCCOCCNC(=O)CC[C@H](NC(=O)CCCCCCCCCCCCC(=O)O)C(=O)O)NC(=O)[C@H](CCCN)NC(=O)[C@H](CC(=O)O)NC(=O)[C@H](CC(C)C)NC(=O)[C@](C)(CC(C)C)NC(=O)[C@@H](NC(=O)[C@H](CO)NC(=O)[C@H](Cc1ccncc1)NC(=O)[C@H](CC(=O)O)NC(=O)[C@H](CO)NC(=O)[C@@H](NC(=O)[C@](C)(Cc1ccccc1F)NC(=O)[C@@H](NC(=O)CNC(=O)[C@H](CCC(=O)O)NC(=O)C(C)(C)NC(=O)[C@@H](N)Cc1ccc(O)cc1)[C@@H](C)O)[C@@H](C)O)[C@@H](C)CC)[C@@H](C)CC)C(=O)N[C@@H](CCC(=O)O)C(=O)NCC(=O)NCC(=O)N[C@@H](CCCCNC(=O)COCCOCCNC(=O)COCCOCCNC(=O)CC[C@H](NC(=O)CCCCCCCCCCCCC(=O)O)C(=O)O)C(=O)N[C@@H](CO)C(=O)N[C@@H](CO)C(=O)NCC(=O)N[C@@H](C)C(=O)N1CCC[C@H]1C(=O)N1CCC[C@H]1C(=O)N1CCC[C@H]1C(=O)N[C@@H](CO)C(N)=O [Example 64]								> 4780 nM	0.161 nM		90.5 ± 3.44%	92.9 ± 3.06%	0.0158 nM	> 9950 nM	> 9950 nM	27 nM	87.8 ± 0.301%	97.3 ± 4.13%	0.557 nM

Reference: patent US20230265151A1, “GIP/GLP1 CO-AGONIST COMPOUNDS” (priority 2020, published 2023)
